Test results taken from patent publication EP1429719B1, “ANTI-INFLAMMATORY DERMOCOSMETOLOGIC COMPOSITION IN PARTICULAR FOR TREATING ACNE AND SEBORRHEIC DERMATITIS” (Pierre Fabre Dermo-Cosmetique, priority 2001, dated 2003).

Test system: prostaglandine 6KF1α
Assay: Production of prostaglandin 6KF1α by HaCaT human keratinocytes stimulated with calcium ionophore A23187 (ELISA)
Assay type: cell-based, humain
Details: 5 h culture; for PG6KF1α: n = 3
Excerpt: Conformément à la présente invention, il a été mis en évidence une synergie d'activité anti-inflammatoire du lactamide et du glycyrrhétinate de zinc et/ou du glycyrrhétinate de stéaryl et/ou de glycyrrhétinate d'ammonium. Cette synergie a été objectivée à la suite d'une évaluation sur la production de prostaglandine 6KF1α par le kératynocyte humain.
Dans cette étude, on s'est intéressé en particulier à une prostaglandine, la PG6KF1α, métabolite stable de la prostarycline, qui est un des métabolites majeurs produits par le kératinocyte stimulé, et représentatif de la modulation de la production des métabolites de l'acide arachidonique issus de la voie de la cyclo-oxygénase.
Sur ce modèle, on a évalué l'activité du glycyrrhétinate de zinc en association avec le lactamide sur la production de PG6KF1α induite chez le kératinocyte par un stimulant de la cascade de l'acide arachidonique, le ionophore calcique A23187.
On a réalisé ensuite la même étude en évaluant l'activité du stéaryl glycyrrhétinate en association avec le lactamide.
La suspension de kératinocytes humains HaCaT dans le RPMI 10% SVF est distribuée dans les plaques 6 puits (1x106 cellules/2ml/puits) et incubée pendant 16 heures à 37°C dans une atmosphère à 5% CO2. Les kératinocytes sont alors rincés avec du PBS pour éliminer les cellules non-adhérentes puis exposés aux produits à tester inclus dans du RPMI sans SVF (qui pourrait interférer dans le dosage).
Le lactamide MEA est directement solubilisé dans le RPMI sans SVF à une concentration de 1 0mg/ml.
Le glycyrrhétinate de zinc est préparé dans l'éthanol absolu à 100 mg/ml puis repris dans le RPMI sans SVF à 10 mg/ml.
Le stéaryl glycyrrhétinate est préparé dans le DMSO à […] puis repris dans le RPMI sans SVF à 10mg/ml.
Le glycyrrhétinate d'ammonium est préparé dans l'éthanol absolu à 100 mg/ml puis repris dans le RPMI sans SVF à 25 mg/ml.
Pour chaque lot, 3 puits sont réalisés. Les cellules sont incubées pendant 1 heure avec les produits à tester puis le ionophore calcique A23187, est ajouté pendant 5 heures à la concentration 5µM.
Les milieux de culture de chacun des puits sont ensuite récupérés, centrifugés à 3000 tr/mn et conservés à -80°C.
La production de prostaglandine 6KF1α pour chacun des essais est mesurée par Kit Elisa EUROMEDEX.
Les lots suivants ont été réalisés : • Lot témoin • Lot témoin stimulé A23187 5µM • Lactamide MEA 500µg/ml + A23187 5µM • Glycyrrhétinate de zinc 10 µg/ml + A23187 5µM • Lactamide MEA 500µg/ml/Glycyrrhétinate de zinc 10µg/ml + A23187 5µM • Stéaryl glycyrrhétinate 50µg/ml + A23187 5µM • Lactamide MEA 500µg/ml/Stéaryl glycyrrhétinate 50µg/ml + A23187 5µM • Glycyrrhétinate d'ammonium 25 µg/ml + A23187 5µM • Lactamide MEA 500 µg/ml/Glycyrrhétinate d'ammonium 25 µg/ml + A23187 5µM.
Les résultats sont exprimés en picogrammes de prostaglandine 6KF1α pour 1x10^6 kératinocytes et par ml de culture.
L'analyse statistique des résultats est réalisée par une analyse de variance et par le test de Dunnett.

In the case of CC(O)C(=O)NCCO (stereo not shown) [Lactamide MEA, monoéthanolamide de l'acide lactique], the inhibition at 500 µg/mL (Homo sapiens, Lactamide MEA 500µg/ml + A23187 5µM, n = 3, read-out: % activité / Témoin A23187) is reported as -8% and the PG6KF1α (Lactamide MEA 500µg/ml + A23187 5µM, 1 h pre-incubation) is reported as 124,87 ± 11,50 pg/1x10^6 kératinocytes/ml.
In the case of glycyrrhétinate de zinc, the PG6KF1α (Glycyrrhétinate de zinc 10µg/ml + A23187 5µM) is reported as 78,37 ± 2,55 pg/1x10^6 kératinocytes/ml.
CC1(C)[C@@H](O)CC[C@]2(C)[C@H]3C(=O)C=C4[C@@H]5C[C@@](C)(C(=O)O)CC[C@]5(C)CC[C@@]4(C)[C@]3(C)CC[C@@H]12 [Glycyrrhétinate d'ammonium, glycyrrhétinate d'ammonium] was tested, and the PG6KF1α (Glycyrrhétinate d'ammonium 25µg/ml + A23187 5µM) was 80,74 ± 3,67 pg/1x10^6 kératinocytes/ml and the inhibition at 25 µg/mL (Homo sapiens, Glycyrrhétinate d'ammonium 25µg/ml + A23187 5µM, n = 3, read-out: % activité / Témoin A23187) was 30%.
In the case of CCCCCCCCCCCCCCCCCCOC(=O)[C@@]1(C)CC[C@]2(C)CC[C@]3(C)C(=CC(=O)[C@@H]4[C@@]5(C)CC[C@H](O)C(C)(C)[C@@H]5CC[C@]43C)[C@@H]2C1 [Stéaryl glycyrrhétinate, stéaryl glycyrrhétinate], the inhibition at 50 µg/mL (Homo sapiens, Stéaryl glycyrrhétinate 50µg/ml + A23187 5µM, n = 3, read-out: % activité / Témoin A23187) is reported as 31% and the PG6KF1α (Stéaryl glycyrrhétinate 50µg/ml + A23187 5µM) is reported as 79,87 ± 5,14 pg/1x10^6 kératinocytes/ml.
